One data set relates to p21. Nature of the data set: p21 protein level in HUVEC lysate. Type of data set: cell-based, human. As for the experimental part:
(§1) Cell lysates were stored at −80° C.
(§2) All values obtained were normalized against protein concentration.

In data set [1] the test system is plasminogen activator inhibitor-1 (PAI-1). Nature of the data set: PAI-1 protein level in HUVEC lysate. It counts as cell-based, human. As for the experimental part: as §1, §2
In data set [2] the test system is von Willebrand factor (vWF). The data set is described as follows: vWF level in HUVEC lysate. It counts as cell-based, human. The settings on record: discrete time intervals and concentrations (FIG. 3). On the procedure: as §1, §2
A further data set deals with p53. The data set is described as follows: p53 protein level in HUVEC lysate. Type of data set: cell-based, human. The settings on record: discrete time intervals and concentrations (FIG. 4). On the procedure:
as §1, §2

The format of data set [3] is in vivo. As for the experimental part: Male beagle dogs 10 to 20 months of age (Marshall BioResources, North Rose, NY) were individually housed at the testing facility. […] […]. […] Body weight and food intake were recorded daily. Blood was collected before each dose and 4 hours after each dose for hematology (e.g., platelet count), coagulation parameters (e.g., thrombin time, antithrombin III), and protein panel analysis (e.g., D-dimer) (Nextcea, Woburn, Mass.).

The conditions of data set [4]: cited from earlier work.
Data set [5] relates to HUVEC. The data set is described as follows: Inhibition of HUVEC proliferation as a function of drug exposure time (washout assay).
Experimental: (§3) After incubation with drug or vehicle, EC proliferation was analyzed using a DNA dye (CyQUANT®) added to lysed cells to provide a fluorescent signal relative to the amount of DNA, allowing a measure of cell density.
A washout assay protocol is as follows: Day 1: plate cells: Plate cells at 0.3×10^4 cells/well in collagen coated 96-well plates; Incubate cells at 37° C., 5% CO2 in a humidified atmosphere overnight. Day 2: dilute and add MetAP2 inhibitor compounds: Dilute compounds in cell culture medium to the appropriate concentration. Add medium containing compound onto cells. Incubate cells at 37° C., 5% CO2 in a humidified atmosphere for the appropriate timepoint. Washout: After the indicated time, remove medium from the relevant samples and wash twice with PBS. Replace with fresh medium Incubate at 37° C., 5% CO2 in a humidified atmosphere until final incubation time. […] Measure cell proliferation using CyQuant assay.
The cells were incubated for 72 hrs and cell proliferation was measured to assess inhibition. […] Error bars represent the standard error of the mean for each condition (n=8 replicates per test condition pooled from 3 experiments).
The test system of the next data set is thrombomodulin (TM). On the procedure:
For LC-MS/MS sample preparation, cell culture media was removed, cells were washed with 10 mL of Dulbecco's phosphate-buffered saline (DPBS), and 500 μL of T-PER lysis buffer was added. Cell lysates were stored at −80° C. […] For the 4- and 8-hour incubations, cells were maintained by standard culture for the remainder of the 72-hour incubation period. Cell cycle protein levels were assessed using enzyme-linked immunosorbent assays.
HUVEC cells were exposed to compounds at concentrations of 1 nM, 3 nM, 10 nM, and 20 nM. […] The protein assays performed included measurements of total p21, thrombomodulin, total p53, PAI-1, and von Willibrand factor (vWF). All values obtained were normalized against protein concentration.

Data set [6] deals with HUVEC. Nature of the data set: Inhibition of HUVEC (EC) proliferation, continuous exposure, CyQUANT DNA dye. The settings on record: Homo sapiens.
Experimental: In vitro studies were conducted in cultured HUVECs (Lonza, Amboise, France). Cells were cultured in endothelial growth medium 2 cell culture media (EGM-2, Lonza, Amboise, France), passaged by seeding at 3×10^3 cells/mL on T175 flasks, and allowed to reach approximately 80% confluence before experiments were conducted. Cells were trypsinized and counted using trypan blue exclusion method using an automated Cedex cell counter.
as §3
Setting [7] is: 72 hours of incubation, all concentrations (1, 3, 10, 20 nM).
[8] abbreviates: dogs, 0.6 mg/kg s.c. Q3D (FIG. 5).
[9] abbreviates: patients with type 2 diabetes, 26 weeks of treatment.
[10] abbreviates: 10 nM, 2-hour incubation, washed (FIG. 6B).
Where [11] appears, read: exposures as short as one hour (FIG. 1C).
Setting [12] is: shorter incubations of 4 or 8 hours.
[13] abbreviates: dogs, 2 mg/kg s.c. Q3D for 10 days.

These results are taken from patent publication US20200003759A1, “METHODS FOR IDENTIFYING METAP-2 MODULATORS” (Zafgen, Inc., priority 2017, published 2020).

Read-outs that look alike come from different tables or passages of the source. Some results are limits rather than exact numbers.

`CO[C@@H]1[C@H](OC(=O)/C=C/c2ccc(OCCN(C)C)cc2)CC[C@]2(CO2)[C@H]1[C@@]1(C)O[C@@H]1CC=C(C)C` [Beloranib, beloranib]: in the data set with p21 (setting [7]), the p21 protein level entry was “increased p21”. Also, the p21 protein level result in the data set on p21 (short 4- or 8-hour incubations, 10 and 20 nM) is “increased p21”. Also, in [1] (10 and 20 nM at the earliest timepoint), the PAI-1 protein level entry is on record as “increased PAI-1 levels”. For the same molecule, the PAI-1 protein level result in data set [1] (all concentrations at 72 hours) is reported as “increased PAI-1 levels”. The vWF levels entry in [2] was “no effects on vWF levels”. In addition, the p53 protein levels entry in the data set with p53 is recorded as “no effects on p53 protein levels”. Besides, the tolerability result in data set [3] (dogs, 0.6 mg/kg s.c. Q3D) was “not well tolerated”. For the same molecule, in data set [3] (setting [8]), the D-dimer concentrations entry was “increased”, the “antithrombin III” value is reported as “decreased”, the platelet count result is recorded as “decreased” and the thrombin time result is listed as “decreased”. Further, in [3] (dogs, 0.6 mg/kg s.c. Q3D, within 2 weeks of drug administration), the “hemostasis in toxicology studies” value is “some animals developed evidence of impaired hemostasis”. In data set [4] (patients with obesity, PWS, or type 2 diabetes), the adverse events result is recorded as “adverse events (AEs) of venous thromboembolism occurred”. Further, in [4] (setting [9]), the “reduction in HbA1c” value is reported as 2.0% and the weight loss is 13%. Besides, the “reduction of cell proliferation measured at 72 hours” value in the data set with HUVEC [5] (setting [10]) is recorded as “approximately 60%”. In addition, in the data set with HUVEC [5] (setting [11]), the “effects on EC proliferation after short exposure” value was “occurred rapidly” and the “lowest concentration with effects on EC proliferation at short exposure” value was 11 × the EC50.

On to `CO[C@@H]1[C@H](OC(=O)N2CC(CCN3CCOCC3)C2)CC[C@]2(CO2)[C@H]1[C@@]1(C)O[C@@H]1CC=C(C)C` [Compound A], for which the values for the p21 protein level result in the data set with p21 (setting [7]) and in the data set with p21 (setting [12]) were “increased p21” and “no meaningful changes”, respectively. The results for the TM protein level result in the data set on thrombomodulin (TM) (setting [7]) and with thrombomodulin (TM) (setting [12]) were “reduced TM protein levels” and “no meaningful changes”, respectively. Moreover, the PAI-1 protein level result in data set [1] (any of the concentrations or time points) is on record as “no effect on PAI-1 protein levels”. Besides, the vWF levels result in data set [2] was “no effects on vWF levels”. For the same molecule, the p53 protein levels result in the data set with p53 is on record as “no effects on p53 protein levels”. The tolerability result in [3] (dog, in vivo, sc, 2 mg/kg) was “well tolerated”. The body weight result in data set [3] (setting [13]) was “Weight loss was observed”. Moreover, the food intake entry in data set [3] (setting [13]) was “unchanged”. For the same molecule, in data set [3] (dogs, 2 mg/kg s.c. Q3D for 10 days (FIG. 5)), the “changes in clinical observations, hematology (platelet count), D-dimer, thrombin time, antithrombin III” value is recorded as “no adverse changes”. Also, in [3] (dogs, 2 mg/kg s.c. Q3D, scheduled dosing period), the survival entry is “all animals survived”. Besides, the EC50 turned out to be 0.24 nM in the data set on HUVEC [6] (72 h, read-out: concentration that inhibited EC proliferation by 50% (EC50)) and 0.2 nM in the data set on HUVEC [6] (read-out: HUVEC Proliferation (EC50, nM)). In addition, in the data set with HUVEC [5] (setting [10]), the “effect on cell proliferation measured at 72 hours” value is “no effect on cell proliferation”. Also, in the data set with HUVEC [5] (4 hours or less, concentrations up to 50× the EC50), the “effect on cell proliferation after short-term exposure” value is recorded as “no effect on cell proliferation”. In addition, in the data set on HUVEC [5] (FIG. 1B), the “continuous exposure time needed for robust inhibition of EC proliferation” value is no less than 48 h. For the same molecule, the “% inhibition 6XIC90 4 h exposure” value in the data set with HUVEC [5] (HUVEC proliferation, 6XIC90, 4 h exposure) turned out to be 5.6%. In the data set with HUVEC [5] (HUVEC proliferation, 6XIC90, 24 h exposure), the “% inhibition 6XIC90 24 h exposure” value amounted to 41%. In addition, the “% inhibition 20XIC90 4 h exposure” value in the data set on HUVEC [5] (HUVEC proliferation, 20XIC90, 4 h exposure) is on record as 12.4%. Besides, the “% inhibition 20XIC90 24 h exposure” value in the data set with HUVEC [5] (HUVEC proliferation, 20XIC90, 24 h exposure) stood at 40%.
